Measured values from patent US20260139017A1, “COMPOSITIONS AND METHODS USING REELIN IN ALZHEIMER'S DISEASE” (The General Hospital Corporation, priority 2022, published 2026).

Key:
[1] = Heparin HPLC, peak retention time in KCl elution; type: binding; settings: isocratic 1M KCl elution, long and short peptides
Description: […] 50 μl of 0.3 μg/μL uncleaved or cleaved WT Reelin peptide was used at 0.3 ml/min in 0.15MKCl, 10 mM PBS. 0-13.5 min: 0.15M KCl to load sample, 13.5-14.5 min: ramp to 0.5M KCl, 14.5-24.5 min: 0.5-1M KCl gradient (ramp), 24.5-45 min: 1M KCl (isocratic elution), 45-55 min: 1M KCl at 0.6 ml/min (wash), 55.0-56.0 min: ramp to 0.15M KCl at 0.3 ml/min, 56.0-59.0 min: 0.15M KCl (reset column). Fluorescence Intensities were measured at an excitation wavelength of 260 nm and emission wavelength of 290 nm, based on fluorescence properties of aromatic amino acids. To assess fluorescence properties of peptides, 15 ul of ˜0.6 ug/mL of peptide was diluted in 500 μL of 0.15MKCl, 10 mM PBS, and peak excitation and emission of peptides was calculated from the 2D graphical data.
The column chromatography method was adapted from previous research from the laboratory (2). Based on the column chromatography data, the initial protocol used a NaCl gradient from 0-1 M and a 5M salt wash to reset the HPLC column. However, the high salt gradient was corrosive to the HPLC machine parts. Therefore, KCl was considered because the […]. A lower molar concentration of a buffer with KCl could be used to disrupt heparin—Reelin CTR interactions compared to NaCl to help keep the HPLC pumps free of residual salts and potential corrosion. Since a lower concentration of salt was used, the amount of time needed at an […] hold of 1M KCl was extended until the peptide signal could not be detected before the column was equilibrated for the next sample.

[2] = Bio-layer interferometry (BLI) of Fc-fusion CTR-RELN on heparin coated biosensor; type: binding; settings: Fc-fusion (short, furin-cleaved) CTR
Description: We used Fc-fusion Reelin CTR peptides since peptides alone would be smaller than the limit of detection in this experimental design. To assess heparin—Fc-Reelin interaction, the octet system (bio-layer interferometry) was used to assess heparin-protein kinetics. 50 μg/mL biotinylated heparin was immobilized on the biosensor tip surface for 300 sec on preconditioned biosensors. This was followed by quenching with biocytin at 50 μg/ml, baseline buffer diluent for 120 sec, 200 nM of analyte (Fc-fusion proteins) for 120 sec, and disassociation in assay buffer for 120 sec.
The experimental data were fit with the 1:1 binding model and analyzed with global fitting using Octet Data Analysis software to calculate KD.

Aβ42 = target: T1, Aβ42 (Homo sapiens, UniProt P05067); assay: Thioflavin T (ThT) Aβ aggregation assay; type: biochemical; settings: Aβ42 55 μM, 10 μM peptide, vs Aβ alone
T1 construct: SensoLyte ThT O-Amyloid (1-42) Aggregation kit
T1 sequence (P05067 672-713 limits assumed): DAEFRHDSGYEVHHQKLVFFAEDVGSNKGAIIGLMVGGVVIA
Description: Therefore, the ThT assay can be used to quantify AB aggregation using previously developed methods (40).
We incubated CTR-RELN with Aβ and monitored aggregation using a ThioflavinT fluorescence assay normalized to the maximum ThT emission of Aβ only. We also assayed Aβ in the presence of morin, a known inhibitor (41), as a […]. Long and short WT and H3447R RELN CTR peptides were included to better understand the potential role of the H3447R mutation in amyloid pathology (FIGS. 14 and 15. Negative controls included long and short RELN CTR peptides with neutrally charged AAs (histidines) in place of basic AAs in the alpha- and beta-GAG binding sites.
A Thioflavin T (ThT) assay was also performed using synthetic Reelin peptides to assess the differential effects of these proteins on Aβ42 aggregation in vitro using Thioflavin T (SensoLyte ThT O-Amyloid (1-42) Aggregation kit, catalog no. ΔS-72214). Aβ42 was added to a final concentration of 55 μM in solutions of 10 μM of Reelin peptide variants in a transparent, no-binding 96-well plate. Samples were then mixed with 2 mM Thioflavin T dye and fluorescence was read at excitation wavelength/emission wavelength (Ex/Em)=440/484 nm at intermittent time intervals over 2 h. The plate was kept at 37° C. with 15 s shaking between reads. […] In general, it appears that the RELN Cterm domain is highly unstructured. […] If the mini-RELN includes the C-term domain only without a receptor binding domain then the protection will not involve signaling, but will still involve direct interactions with tau. If the mini-RELN includes the C-term domain and the receptor binding domain, it will have at least two protective mechanisms, namely RELN signaling and direct interactions with tau.

RKQNYMMNFSRQHGLRRFYNRRRRSLRRYP [CTR-RELN H3447R]
peak retention time on heparin HPLC ([1]; listed as H3447R): increased later peak retention times | peak retention time on heparin HPLC ([1]; listed as H3447R Reelin): significantly later peak retention time | peak retention time on heparin HPLC ([1]; listed as RELN H3447R): delayed peak times | interaction/affinity with heparin relative to WT ([2]; listed as H3447R): ~2 fold | interaction/affinity with heparin relative to WT ([2]; listed as RELN H3447R): about 2 fold | Aβ aggregation (ThT fluorescence) (Aβ42; listed as COLBOS variant): enhanced this effect | Aβ aggregation (ThT fluorescence) (Aβ42; listed as H3447R): did not significantly affect Aβ aggregation compared to WT | Aβ aggregation (ThT fluorescence) (Aβ42; listed as RELN H3447R): similarly effective at inhibiting ThT aggregation as WT
